Reference: ChEMBL document CHEMBL2401713, “Discovery of bufadienolides as a novel class of ClC-3 chloride channel activators with antitumor activities” (J Med Chem, 2013)
Calls of active or inactive are those of the source. The calls are words filed in the database; no cut-off is given here.

Key:
[1] = tested on: H22; experiment: Cytotoxicity against mouse H22 cells expressing mutated alpha-1 Na+/K+-ATPase assessed as growth inhibition after 48 hrs by MTT assay; assay type: functional, cell-based; conditions: H22, 48 h
[2] = tested on: HepG2; experiment: Cytotoxicity against adriamycin-resistant human HepG2 cells assessed as growth inhibition after 48 hrs by MTT assay; assay type: functional, cell-based; conditions: HepG2, 48 h
[3] = Cytotoxicity against human CNE1 cells assessed as growth inhibition after 48 hrs by MTT assay; assay type: functional, cell-based; conditions: CNE
[4] = tested on: HepG2; experiment: Cytotoxicity against human HepG2 cells assessed as growth inhibition after 48 hrs by MTT assay; assay type: functional, cell-based; conditions: HepG2, 48 h
[5] = Cytotoxicity against human CNE2Z cells assessed as growth inhibition after 48 hrs by MTT assay; assay type: functional, cell-based
[6] = tested on: CCRF S-180; experiment: Cytotoxicity against mouse S180 cells expressing mutated alpha-1 Na+/K+-ATPase assessed as growth inhibition after 48 hrs by MTT assay; assay type: functional, cell-based; conditions: CCRF S-180, 48 h
[7] = target: T1, H(+)/Cl(-) exchange transporter 3 (Homo sapiens) (UniProt P51790); experiment: Activation of ClC-3 in human CNE2Z cells assessed as increase in chloride current density at +80mV holding potential at 1 uM by whole-cell patch clamp method relative to vehicle-treated control; assay type: cell-based
T1 sequence (whole entry): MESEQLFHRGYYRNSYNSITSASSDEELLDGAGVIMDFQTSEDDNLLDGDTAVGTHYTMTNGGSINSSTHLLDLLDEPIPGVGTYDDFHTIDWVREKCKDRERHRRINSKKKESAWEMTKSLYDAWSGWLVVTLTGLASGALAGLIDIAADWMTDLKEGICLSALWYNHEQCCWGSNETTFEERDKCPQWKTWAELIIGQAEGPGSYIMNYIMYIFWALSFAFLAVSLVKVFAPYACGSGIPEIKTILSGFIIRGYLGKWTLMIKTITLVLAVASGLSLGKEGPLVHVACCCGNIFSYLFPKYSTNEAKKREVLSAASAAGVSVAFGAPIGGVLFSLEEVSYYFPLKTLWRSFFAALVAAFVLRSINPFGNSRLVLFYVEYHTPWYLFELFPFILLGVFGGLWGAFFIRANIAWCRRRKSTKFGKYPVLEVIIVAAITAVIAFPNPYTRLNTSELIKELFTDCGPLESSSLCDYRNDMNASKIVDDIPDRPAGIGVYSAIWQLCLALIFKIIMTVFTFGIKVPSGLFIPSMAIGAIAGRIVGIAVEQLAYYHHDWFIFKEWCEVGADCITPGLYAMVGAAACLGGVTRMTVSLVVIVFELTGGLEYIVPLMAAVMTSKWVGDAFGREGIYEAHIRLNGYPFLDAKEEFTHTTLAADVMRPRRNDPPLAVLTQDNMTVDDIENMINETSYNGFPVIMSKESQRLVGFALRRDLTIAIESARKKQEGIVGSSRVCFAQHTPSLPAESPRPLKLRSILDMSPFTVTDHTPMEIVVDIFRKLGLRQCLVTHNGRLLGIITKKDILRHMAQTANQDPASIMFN

[8] = Cell cycle arrest in human CNE2Z cells assessed as accumulation at sub-G1 phase at 10 uM after 24 hrs by propidium iodide staining-based flow cytometric analysis in presence of tamoxifen (reference value: 1.5%); assay type: functional
[9] = Cell cycle arrest in human CNE2Z cells assessed as accumulation at sub-G1 phase at 1 uM after 24 hrs by propidium iodide staining-based flow cytometric analysis in presence of tamoxifen (reference value: 1.5%); assay type: functional
[10] = Cell cycle arrest in human CNE2Z cells assessed as accumulation at sub-G1 phase at 5 uM after 24 hrs by propidium iodide staining-based flow cytometric analysis in presence of ClC-3 siRNA (reference value: 1.3%); assay type: functional
[11] = Cell cycle arrest in human CNE2Z cells assessed as accumulation at sub-G1 phase at 1 uM after 24 hrs by propidium iodide staining-based flow cytometric analysis (reference value: 1.1%); assay type: functional
[12] = tested on: CNE2Z; experiment: Induction of apoptosis in human CNE2Z cells assessed as activation of caspase-3 at 1 uM after 24 hrs by annexin V-FITC/propidium iodide staining-based flow cytometric analysis; assay type: functional, cell-based
[13] = tested on: CNE2Z; experiment: Induction of apoptosis in human CNE2Z cells assessed as increase in apoptotic cell level at 1 to 10 uM after 24 hrs by annexin V-FITC/propidium iodide staining-based flow cytometric analysis; assay type: functional
[14] = tested on: CNE2Z; experiment: Induction of apoptosis in human CNE2Z cells assessed as induction of PARP cleavage at 1 uM after 24 hrs by annexin V-FITC/propidium iodide staining-based flow cytometric analysis; assay type: functional, cell-based
[15] = Cell cycle arrest in human CNE2Z cells assessed as accumulation at sub-G1 phase at 5 uM after 24 hrs by propidium iodide staining-based flow cytometric analysis (reference value: 1.1%); assay type: functional
[16] = tested on: CNE2Z; experiment: Induction of apoptosis in human CNE2Z cells assessed as induction of PARP cleavage at 1 uM after 24 hrs by annexin V-FITC/propidium iodide staining-based flow cytometric analysis in presence of tamoxifen, NPPB, ClC-3 siRNA; assay type: functional, cell-based
[17] = Cell cycle arrest in human CNE2Z cells assessed as accumulation at sub-G1 phase at 1 uM after 24 hrs by propidium iodide staining-based flow cytometric analysis in presence of NPPB (reference value: 2%); assay type: functional
[18] = tested on: CNE2Z; experiment: Induction of apoptosis in human CNE2Z cells assessed as expression of caspase-3 at 1 uM after 24 hrs by annexin V-FITC/propidium iodide staining-based flow cytometric analysis in presence of tamoxifen, NPPB, ClC-3 siRNA; assay type: functional, cell-based
[19] = tested on: CNE2Z; experiment: Induction of apoptosis in human CNE2Z cells assessed as increase in apoptotic cell level at 1 to 10 uM after 24 hrs by annexin V-FITC/propidium iodide staining-based flow cytometric analysis in presence of tamoxifen, NPPB, ClC-3 siRNA; assay type: functional
[20] = Cytotoxicity against SV40-transformed human NP69 cells assessed as cell viability after 48 hrs by MTT assay; assay type: cell-based; conditions: NP69, 48 h
[21] = Cell cycle arrest in human CNE2Z cells assessed as accumulation at sub-G1 phase at 10 uM after 24 hrs by propidium iodide staining-based flow cytometric analysis in presence of ClC-3 siRNA (reference value: 1.3%); assay type: functional
[22] = Cell cycle arrest in human CNE2Z cells assessed as accumulation at sub-G1 phase at 5 uM after 24 hrs by propidium iodide staining-based flow cytometric analysis in presence of NPPB (reference value: 2%); assay type: functional
[23] = Cell cycle arrest in human CNE2Z cells assessed as accumulation at sub-G1 phase at 10 uM after 24 hrs by propidium iodide staining-based flow cytometric analysis in presence of NPPB (reference value: 2%); assay type: functional
[24] = Cell cycle arrest in human CNE2Z cells assessed as accumulation at sub-G1 phase at 5 uM after 24 hrs by propidium iodide staining-based flow cytometric analysis in presence of tamoxifen (reference value: 1.5%); assay type: functional
[25] = Upregulation of ClC-3 protein expression in human CNE2Z cells after 24 hrs by Western blot analysis; assay type: functional, cell-based
[26] = Cell cycle arrest in human CNE2Z cells assessed as accumulation at sub-G1 phase at 1 uM after 24 hrs by propidium iodide staining-based flow cytometric analysis in presence of ClC-3 siRNA (reference value: 1.3%); assay type: functional
[27] = Cell cycle arrest in human CNE2Z cells assessed as accumulation at sub-G1 phase at 10 uM after 24 hrs by propidium iodide staining-based flow cytometric analysis (reference value: 1.1%); assay type: functional
[28] = Cell cycle arrest in human CNE2Z cells assessed as accumulation at sub-G1 phase at 50 uM after 24 hrs by propidium iodide staining-based flow cytometric analysis (reference value: 1.1%); assay type: functional
[29] = Cell cycle arrest in human CNE2Z cells assessed as accumulation at sub-G1 phase at 50 uM after 24 hrs by propidium iodide staining-based flow cytometric analysis in presence of ClC-3 siRNA (reference value: 1.3%); assay type: functional
[30] = tested on: CNE2Z; experiment: Induction of apoptosis in human CNE2Z cells assessed as activation of caspase-8 at 1 to 50 uM after 24 hrs by luminometric analysis; assay type: functional, cell-based
[31] = Cell cycle arrest in human CNE2Z cells assessed as accumulation at sub-G1 phase at 50 uM after 24 hrs by propidium iodide staining-based flow cytometric analysis in presence of NPPB (reference value: 2%); assay type: functional
[32] = target: T1, H(+)/Cl(-) exchange transporter 3 (Homo sapiens); experiment: Activation of ClC-3 in human CNE2Z cells assessed as increase in chloride current in outward and inward direction at +80mV holding potential at 1 uM by whole-cell patch clamp method; assay type: cell-based
[33] = tested on: CNE2Z; experiment: Induction of apoptosis in human CNE2Z cells assessed as activation of caspase-3/7 at 1 to 50 uM after 24 hrs by luminometric analysis; assay type: functional, cell-based
[34] = Cell cycle arrest in human CNE2Z cells assessed as accumulation at sub-G1 phase at 50 uM after 24 hrs by propidium iodide staining-based flow cytometric analysis in presence of tamoxifen (reference value: 1.5%); assay type: functional

| SMILES | IC50 [1] | IC50 [2] | IC50 [3] | IC50 [4] | IC50 [5] | IC50 [6] | Activity [7] | further results |
| --- | --- | --- | --- | --- | --- | --- | --- | --- |
| C[C@]12CC[C@H](O)C[C@H]1CC[C@@H]1[C@@H]2CC[C@]2(C)[C@@H](c3ccc(=O)oc3)[C@@H](O)C[C@]12O [DESACETYLBUFOTALIN] | > 50 µM | 2.6 µM | 4.89 µM | 3.58 µM | 1.77 µM | > 50 µM | Active |  |
| C[C@]12CC[C@H](OC(=O)CCCCCCC(=O)O)C[C@H]1CC[C@@H]1[C@@H]2CC[C@]2(C)[C@@H](c3ccc(=O)oc3)CC[C@]12O | > 50 µM | > 100 µM | 4.99 µM | > 100 µM | 7.38 µM | > 50 µM |  |  |
| CC(=O)O[C@H]1[C@H]2O[C@]23[C@@H]2CC[C@@H]4C[C@@H](O)CC[C@]4(C)[C@H]2CC[C@]3(C)[C@H]1c1ccc(=O)oc1 [CINOBUFAGIN] | > 50 µM | 1.71 µM | 0.31 µM | 2.35 µM | 0.39 µM | > 50 µM |  |  |
| C[C@]12CC[C@H](O)C[C@H]1CC[C@@H]1[C@@H]2CC[C@]2(C)[C@@H](c3ccc(=O)oc3)CC[C@]12O [BUFALIN] | > 50 µM | 0.345 µM | 0.279 µM | 0.589 µM | 0.46 µM | > 50 µM |  | Activity [8]: 43.9%; Activity [9]: 26.5%; Activity [10]: 31.7%; Activity [11]: 39.1%; Activity [12]: Active; Activity [13]: 35.2%; Activity [14]: Active; Activity [15]: 50.5%; Activity [16]: inactive; Activity [17]: 23.1%; Activity [18]: inactive; Activity [19]: inactive; IC50 [20]: > 25 µM; Activity [21]: 40.9%; Activity [22]: 33.9%; Activity [23]: 42.7%; Activity [24]: 36.9%; Activity [25]: Dose-dependent effect; Activity [26]: 21.5%; Activity [27]: 59.1% |
| COC(=O)CCCCCCC(=O)O[C@H]1CC[C@@]2(C)[C@H](CC[C@@H]3[C@@H]2CC[C@]2(C)[C@@H](c4ccc(=O)oc4)CC[C@]32O)C1 | > 50 µM | 2.38 µM | 1.72 µM | 3.18 µM | 2.87 µM | > 50 µM | Active |  |
| CC(=O)O[C@@H]1C[C@H](c2ccc(=O)oc2)[C@@]2(C)CC[C@H]3[C@@H](CC[C@@H]4C[C@@H](O)CC[C@@]43C)[C@@]12O | > 50 µM | > 100 µM | > 100 µM | > 100 µM | > 100 µM | > 50 µM | inactive | Activity [28]: 4%; Activity [29]: 3.4%; Activity [9]: 2.2%; Activity [10]: 3.3%; Activity [11]: 1.3%; Activity [13]: inactive; Activity [30]: inactive; Activity [15]: 3.1%; Activity [31]: 3.8%; Activity [17]: 2.8%; Activity [32]: inactive; Activity [22]: 3.5%; Activity [24]: 3.5%; Activity [25]: inactive; Activity [26]: 3%; Activity [33]: inactive; Activity [34]: 3.9% |
| C[C@]12CC[C@H]3[C@@H](CC[C@@H]4C[C@@H](O)CC[C@@]43C=O)[C@]13O[C@@H]3C[C@@H]2c1ccc(=O)oc1 | > 50 µM | > 100 µM | 15.2 µM | > 100 µM | 26.5 µM | > 50 µM |  |  |
